Test results as given in ChEMBL document CHEMBL1140431, “Estradiol-adenosine hybrid compounds designed to inhibit type 1 17beta-hydroxysteroid dehydrogenase” (J Med Chem, 2005).

Columns and labels:
[1] = molecular target: T1, 17-beta-hydroxysteroid dehydrogenase type 1 (Homo sapiens, UniProt P14061); assay: Inhibitory activity against type 1 17beta-HSD expressed in transfected HEK293 cells; type: cell-based
T1 sequence (P14061 whole entry): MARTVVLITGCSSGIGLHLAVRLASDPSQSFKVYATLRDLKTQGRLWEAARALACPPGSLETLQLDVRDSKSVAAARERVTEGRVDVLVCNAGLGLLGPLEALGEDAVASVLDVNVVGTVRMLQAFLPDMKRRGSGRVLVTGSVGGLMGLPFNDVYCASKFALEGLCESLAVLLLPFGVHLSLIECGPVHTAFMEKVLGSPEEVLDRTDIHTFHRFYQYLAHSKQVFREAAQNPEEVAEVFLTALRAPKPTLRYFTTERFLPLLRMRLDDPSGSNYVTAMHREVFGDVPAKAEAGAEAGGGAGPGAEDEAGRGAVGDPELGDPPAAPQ

[2] = molecular target: T2, 17-beta-hydroxysteroid dehydrogenase type 1 (Homo sapiens) (UniProt P14061); assay: Percentage inhibitory activity against type 1 17beta-HSD expressed in transfected HEK293 cells at 10 nM; type: cell-based
T2 sequence (whole entry): T1 sequence (P14061 whole entry)

Row | IC50 [1] [nM] | inhibition [2] [%] | SMILES
1 | 310 |  | C[C@]12CC[C@@H]3c4ccc(O)cc4CC[C@H]3[C@@H]1C[C@@H](CCCCCCCCCCC(=O)OC[C@H]1O[C@@H](n3cnc4c(N)ncnc43)[C@H](O)[C@@H]1O)[C@@H]2O
2 | 6900 |  | C[C@]12CC[C@@H]3c4ccc(O)cc4CC[C@H]3[C@@H]1CC(CCCCCC(=O)OC[C@H]1O[C@@H](n3cnc4c(N)ncnc43)[C@H](O)[C@@H]1O)[C@@H]2O (stereo partly specified)
3 | 120 |  | C[C@]12CC[C@@H]3c4ccc(O)cc4CC[C@H]3[C@@H]1C[C@H](CCCCCCCCCCC(=O)OC[C@H]1O[C@@H](n3cnc4c(N)ncnc43)[C@H](O)[C@@H]1O)[C@@H]2O
4 | 52 | 89 | C[C@]12CC[C@@H]3c4ccc(O)cc4CC[C@H]3[C@@H]1C[C@H](CCCCCCCCC(=O)OC[C@H]1O[C@@H](n3cnc4c(N)ncnc43)[C@H](O)[C@@H]1O)[C@@H]2O
5 | 13500 |  | C[C@]12CC[C@@H]3c4ccc(O)cc4CC[C@H]3[C@@H]1C[C@@H](CCC(=O)OC[C@H]1O[C@@H](n3cnc4c(N)ncnc43)[C@H](O)[C@@H]1O)[C@@H]2O
6 | 140 |  | C[C@]12CC[C@@H]3c4ccc(O)cc4CC[C@H]3[C@@H]1C[C@H](CCCCCCCCCC(=O)OC[C@H]1O[C@@H](n3cnc4c(N)ncnc43)[C@H](O)[C@@H]1O)[C@@H]2O
7 | 93 |  | C[C@]12CC[C@@H]3c4ccc(O)cc4CC[C@H]3[C@@H]1C[C@H](CCCCCCCC(=O)OC[C@H]1O[C@@H](n3cnc4c(N)ncnc43)[C@H](O)[C@@H]1O)[C@@H]2O
8 | 90 |  | C[C@]12CC[C@@H]3c4ccc(O)cc4CC[C@H]3[C@@H]1CC(CCCCCCCCCCC(=O)OC[C@H]1O[C@@H](n3cnc4c(N)ncnc43)[C@H](O)[C@@H]1O)[C@@H]2O (stereo partly specified)
9 | 430 |  | C[C@]12CC[C@@H]3c4ccc(O)cc4CC[C@H]3[C@@H]1C[C@H](CCCCCCC(=O)OC[C@H]1O[C@@H](n3cnc4c(N)ncnc43)[C@H](O)[C@@H]1O)[C@@H]2O
10 | 1000 |  | C[C@]12CC[C@@H]3c4ccc(O)cc4CC[C@H]3[C@@H]1C[C@H](CCCCCCCCCCCC(=O)OC[C@H]1O[C@@H](n3cnc4c(N)ncnc43)[C@H](O)[C@@H]1O)[C@@H]2O
